Data set [1] addresses T1, bovine colostrum GalNAc-transferase (Bos taurus, UniProt Q07537).
T1 sequence (Q07537 41-559): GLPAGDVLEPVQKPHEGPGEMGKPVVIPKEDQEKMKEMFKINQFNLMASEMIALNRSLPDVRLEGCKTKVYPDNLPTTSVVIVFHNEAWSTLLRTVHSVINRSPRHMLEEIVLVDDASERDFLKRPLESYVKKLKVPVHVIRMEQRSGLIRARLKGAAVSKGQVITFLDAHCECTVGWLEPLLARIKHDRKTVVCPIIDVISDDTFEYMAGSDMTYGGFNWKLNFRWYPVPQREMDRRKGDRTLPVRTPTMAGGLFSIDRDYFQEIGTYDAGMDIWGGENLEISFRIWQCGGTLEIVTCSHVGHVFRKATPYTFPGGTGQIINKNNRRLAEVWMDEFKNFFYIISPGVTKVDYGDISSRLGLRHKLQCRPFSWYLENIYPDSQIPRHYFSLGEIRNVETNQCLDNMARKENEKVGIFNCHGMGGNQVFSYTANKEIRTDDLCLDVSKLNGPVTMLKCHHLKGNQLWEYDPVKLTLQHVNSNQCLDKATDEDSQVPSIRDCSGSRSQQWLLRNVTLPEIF
The experiment in a line: Comparison of different synthetic peptides as acceptors (Biogel P-2 separation). The format is biochemical. The source says: (§1) The t-Boc-amino acids and the PAM resin solid supports are supplied by ABI. The completed peptides are removed from the supporting resin, concurrently with the side chain-protecting groups, by a standard HF cleavage procedure using anisole as a cation scavenger (10% v/v). The crude peptides are purified by preparative reverse phase chromatography on a C18 Vydac column (2.5×30 cm) using a water/acetonitrile gradient, each phase containing 0.1% TFA.
The transfer of N-acetylgalactosamine to peptide acceptors is assayed by two different assays. […] For the determination of kinetic parameters the reaction mixture contains 50 mM Imidazole, pH 7.2, 10 mM MnCl2, 0.5% Triton X-100, 150 μM UDP-GalNAc, approximately 120,000 cpm of UDP-[1-^3 H]-GalNAc, varying concentrations of acceptor (see individual experiments) and approximately 5 mU of enzyme in a final volume of 40 μl; standard incubation time is 20 minutes. The reaction is terminated by placing the samples in a boiling water bath for 1.5 minutes. The reaction product (glycosylated peptide) is separated from unreacted UDP-GalNAc by chromatography on Dowex-2 columns (0.5 ml bed volume) equilibrated in water; the run-through fraction (2.5 ml) containing the glycosylated peptide is collected, supplemented with scintillation fluid and counted for radioactivity. For the determination of the low levels of transfer to serine, the assay conditions are as follows: 50 mM Imidazole, pH 7.2, 10 mM MnCl2, 0.5% Triton X-100, 150 μM UDP-GalNAc, approximately 260,000 cpm UDP-[^3 H]-GalNAc and 3.2 mM acceptor peptide (the concentration of RSPPP is 3.7 mM). […] Following incubation, the enzyme is inactivated by placing the samples on a boiling water bath for 1.5 minutes. The samples are then allowed to cool and the reaction products are separated from unreacted UDP-GalNAc and free GalNAc by chromatography on a Biogel P-2 column (1×50 cm) equilibrated in 7% isopropanol; thirty 1.3 ml fractions are collected.
Assays were done as described in Materials and Methods. The products
were separated by Biogel P-2 chromatography. Assay times were 20 […]

The target in data set [2] is T1, bovine colostrum GalNAc-transferase. The experiment in a line: Determination of kinetic parameters for acceptor peptides. It is filed as biochemical.
Text: as §1
The transfer of N-acetylgalactosamine to peptide acceptors is assayed by two different assays. […] For the determination of kinetic parameters the reaction mixture contains 50 mM Imidazole, pH 7.2, 10 mM MnCl2, 0.5% Triton X-100, 150 μM UDP-GalNAc, approximately 120,000 cpm of UDP-[1-^3 H]-GalNAc, varying concentrations of acceptor (see individual experiments) and approximately 5 mU of enzyme in a final volume of 40 μl; standard incubation time is 20 minutes. The reaction is terminated by placing the samples in a boiling water bath for 1.5 minutes. The reaction product (glycosylated peptide) is separated from unreacted UDP-GalNAc by chromatography on Dowex-2 columns (0.5 ml bed volume) equilibrated in water; the run-through fraction (2.5 ml) containing the glycosylated peptide is collected, supplemented with scintillation fluid and counted for radioactivity. […]

Data set [3] has as its system GalNAcTs (cloned soluble GalNAc-transferase). The experiment in a line: Transfer of N-acetylgalactosamine to synthetic acceptor peptides by soluble GalNAc-transferase, kinetic parameters. Particulars: read-out: Km for UDP-GalNAc.
Data set [4] has as its target T1, bovine colostrum GalNAc-transferase. The experiment in a line: Transfer of N-acetylgalactosamine to protein acceptors by bovine colostrum GalNAc-transferase. Particulars: for acceptor activity in words: native or reduced and carboxymethylated. The format is biochemical. Here is the method:
(§2) The standard assay for UDP-GalNAc:polypeptide, N-acetylgalactosaminyltransferase activity during purification contained the following components in a final volume of 80 μl: 50 mM Imidazole pH 7.2, 10 mM MnCl2, 0.5% Triton X-100, 15 μM UDP-GalNAc, UDP[1-^3 H-] GalNAc (27,000 cpm/assay), 0.15 mg/ml apomucin and varying amounts of enzyme (see individual experiments). The reaction mixture is incubated at 37° C. for 5-10 minutes (see individual experiments) and the reaction product is TCA precipitated and radioactivity measured as described. Assays for activity in lysates from Spodoptera frugiperda cell line 9 (hereinafter referred to as Sf9 cells) are carried out as described by Thomsen et al., (1990).
The above conclusions and the predictions of the specificity algorithm are validated experimentally by studying the ability of bovine colostrum GalNAc-transferase to transfer N-acetylgalactosamine to a variety of acceptors, both native proteins and synthetic acceptor peptides. The transfer of N-acetylgalactosamine to protein acceptors is assayed as described by Elhammer and Kornfeld, 1986, with minor modifications. The concentration of UDP-GalNAc is saturating in all assays; a Km of 8 μM is reported for bovine colostrum GalNAc-transferase (Elhammer and Kornfeld, 1986).
The transfer of N-acetylgalactosamine to protein acceptors was assayed
under standard conditions (see Material and Methods). The acceptor
concentration was 65 μM, the enzyme concentration approximately
65 mU/ml and assay time was 60 minutes. The transfer to both native and
reduced-carboxymethylated acceptors was assayed.

Data set [5] deals with GalNAc-transferase activity in Sf9 cells. The experiment in a line: Expression of baculovirus isolates of the GalNAc-transferase in Sf9 cells, GalNAcT activity. It is filed as cell-based, Spodoptera frugiperda. Here is the method: as §2
The putative GalNAcT coding region, pCR1000-91B, is digested with SstII and HindIII (both enzymes cut only in pCR1000 sequences that flank the insert; FIG. 2C) and these sites are blunted using T4 DNA polymerase so that it can be cloned into a baculovirus expression vector. BamHI linkers are then ligated onto the blunted ends and the resulting sample is ligated into the BamHI site of the baculovirus expression vector pAC373 (Summers and Smith, 1986). The resulting isolates are screened for proper orientation of the GalNAcT open reading frame with respect to the baculovirus polyhedron promoter, to yield pAC373-GalNAcT. […]

Several values for one entry are separate records, joined by “and”; a condition that tells them apart may be missing. Equal entries are not always repeated. Residues, ends and D or L forms follow the SMILES beside them. Some results are limits rather than exact numbers.

`N=C(N)NCCC[C@H](N)C(=O)N[C@@H](CO)C(=O)N1CCC[C@H]1C(=O)N1CCC[C@H]1C(=O)N1CCC[C@H]1C(=O)O` [RSPPP, Arg-Ser-Pro-Pro-Pro] (H-RSPPP-OH): the “slower glycosylation than PPAdSSdSAPG” value in data set [1] (RSPPP vs PPAdSSdSAPG) is on record as “three times slower than PPAdSSdSAPG”. Besides, the Relative rate in data set [1] ([…]) is given as 1/751. The molecule also gave a Product formed in data set [1] (assay time 8 hours, 3.2 mM acceptor (RSPPP 3.7 mM)) of 0.67 nmol/min/mg.

For `C[C@@H](O)[C@H](NC(=O)[C@@H](N)CCCNC(=N)N)C(=O)N1CCC[C@H]1C(=O)N1CCC[C@H]1C(=O)N1CCC[C@H]1C(=O)O` [RTPPP, Arg-Thr-Pro-Pro-Pro] (H-RTPPP-OH), the Michaelis-Menten constant (Km) (in general, the substrate concentration at which the rate is half of its maximum) in data set [2] (20 minutes, mean, S.E. (n = 3)) worked out at 3300 ± 600 µM. For the same molecule, the “Vmax /Km” value in data set [2] (from Km and Vmax) was 183 M⁻¹ s⁻¹.

`CC(=O)N[C@H]1[C@@H](OP(=O)(O)OP(=O)(O)OC[C@H]2O[C@@H](n3ccc(=O)[nH]c3=O)[C@H](O)[C@@H]2O)O[C@H](CO)[C@H](O)[C@@H]1O` [UDP-GalNAc, UDP-N-acetylgalactosamine]: the Km in data set [3] was ~1.7 µM and 1.7 µM.

Take “Bovine cytochrome C: contains one Ser and eight Thr residues but no predicted potential sites [reference compound]”: the “Product formed, native acceptor” value in data set [4] (acceptor 65 μM, enzyme approximately 65 mU/ml, 60 minutes, native) is given as below 0.1 nmol/min/mg. Moreover, in data set [4] (acceptor 65 μM, enzyme approximately 65 mU/ml, 60 minutes, myelin basic protein was not reduced and carboxymethylated), the “Product formed, reduced and carboxymethylated acceptor” value is listed as below 0.1 nmol/min/mg. The “acceptor activity in words” value in data set [4] (listed as bovine cytochrome C) was “is not an acceptor for the enzyme”; in data set [4] (listed as cytochrome C) it was “completely inactive as an acceptor”.

In the case of “CMW Pol-1: baculovirus containing an unrelated gene, human cytomegalovirus DNA polymerase gene [reference compound]”, the Specific activity in data set [5] (Sf9 cell lysates, 48 hours post infection) was 0.13 Units/mg protein. Further, the Relative rate in data set [5] (relative to uninfected cells) turned out to be 0.8.

The values above are taken from patent US6096512A, “Cloned DNA encoding a UDP-GalNAc: Polypeptide, N-acetylgalactosaminyltransferase” (Pharmacia & Upjohn Company, priority 1997, dated 2000).
